Results on twelve molecules are retold here after article PMC4568418, “Identification of natural inhibitors of Entamoeba histolytica cysteine synthase from microbial secondary metabolites” (Frontiers in Microbiology, 2015).

Read-outs that look alike come from different tables or passages of the source.

The target of one data set is EhCS3 (Entamoeba histolytica, UniProt Q401L7). The data set is described as follows: CS inhibitory activity, recombinant EhCS3 (acid-ninhydrin cysteine detection). In kind it is biochemical. As for the experimental part:
(§1) The E. coli BL21 (DE3) cell introduced pET-EhCS (CS1, CS3) construct was used for protein expression. Each EhCSs protein was expressed by 1 mM isopropyl β-D-thiogalactopyranoside induction for 12 h at 30°C. After induction, the E. coli cell was harvested and re-suspended in the lysis buffer (50 mM Tris-HCl, pH 8.0, and 300 mM NaCl) containing 0.5 mM phenylmethylsulfonyl fluoride. The suspension was sonicated and centrifuged at 24,000 ×g for 30 min at 4°C. The histidine-tagged rEhCS proteins were purified from the supernatant fraction using a Ni^2+-NTA column and tagged proteins were eluted with 100–200 mM imidazole in 50 mM Tris-HCl, pH 8.0, and 300 mM NaCl. […].
(§2) For measurement of CS inhibitory activity, 10 μl of sample solution [dimethylsulfoxide (DMSO)/H2O = 1/1 solution] and 30 μl of reaction mixture, composed of 2 μl of 50 mM O-acetyL-L-serine, 2 μl of 50 mM Na2S, 12.5 μl of 200 mM Tris-HCl (pH 7.5), and 13.5 μl of water, was poured into each well of a flat-bottom 96-well plate. After 10 μl of enzyme solution (containing 0.1 μg of rEhCS1 or rEhCS3 in H2O) was added to each well, plates were incubated for 15 min at 37°C. The final concentrations of reagents in each well are; 2 mM O-acetyL-L-serine, 2 mM Na2S, and 50 mM Tris-HCl. The enzymatic reaction was stopped by adding 50 μl of acetic acid (>99.9%), and subsequently the reaction for cysteine detection was started by adding 50 μl of acid-ninhydrin reagent ([Gaitonde, 1967]). The mixture in each well was transferred to a 96-well PCR plate and heated at 95°C for 10 min. After the plate was cooled on ice, the mixture was transferred into a flat-bottom 96-well plate filled with 100 μl of ethanol (EtOH). Absorbance at 560 nm was measured by spectrophotometer (SH-9000Lab, Corona Electric, Ibaraki, Japan). […] To determine whether the sample interferes the acid-ninhydrin reagent reaction, 10 μl of sample solution, 10 μl of water, and 30 μl of 1 mM cysteine solution (cysteine hydrochloric acid salt in water) were mixed in a well of 96-well microtiter plate, and then 50 μl of acetic acid (>99.9%) and 50 μl of acid-ninhydrin reagent were added. The mixture was treated and measured the absorbance at 560 nm as above mentioned to check the effect of the sample to the color reaction.
(§3) Each 5 μl of DMSO solution (1 mg/ml, final concentration 100 μg/ml) of 316 library compounds and 5 μl of water (total 10 μl of DMSO/H2O = 1/1 solution per well) were poured into each well of a 96-well microtiter plate to screen for CS inhibitors. For screening microbial broths, 10 μl of the individual broth extract samples (50% EtOH solution) were poured into each well of a 96-well microtiter plate and dried up in vacuo. After drying, 10 μl of DMSO/H2O = 1/1 solution was added and dissolved. Samples showing more than 50% inhibitory activity and having no inhibitory activities against acid ninhydrin reaction were selected for further evaluation. The inhibition values were measured in duplicate or triplicate. […]; 2.0 to 250 μg/ml for deacetylkinamycin C, deoxyfrenolicin, nanaomycin A, tetracycline and patulin; 1.5 to 200 μg/ml for naphthacemycin A9; 3.1 to 400 μg/ml for xanthofulvin, terreinol and citromycetin; 0.06 to 200 μg/ml for exophillic acid.

The nature of data set [1]: Cytotoxicity against MRC-5 cells (WST-8). In kind it is cell-based. Conditions: human fibroblast cells MRC-5, 2 days. How it is done:
(§4) Human fibroblast cells, MRC-5, were plated on 96-well flat bottom plates at a density of 1.5 × 10^4 cells/well with 100 μl of MEM medium (Life Technologies, Grand Islands, NY, USA) containing 10% fetal bovine serum (Hana-nesco Bio, Tokyo, Japan) and 1% penicillin-streptomycin (Life Technologies) and incubated at 37°C with 5% CO2 for 2 days. Test compounds in 5 μl of 50% DMSO–H2O and 100 μl of MEM medium were mixed and added to each well. After 2 days cultivation at 37°C with 5% CO2, cell density and morphological changes were observed under a microscope. After observation, 10 μl of WST-8 solution (Dojindo, Kumamoto, Japan) was added to the cells and the plate was incubated at 37°C with 5% CO2 for 2 h. Then, absorbance at 450 nm was measured by spectrophotometer (SH-9000Lab, Corona Electric). Cytotoxicity was measured in duplicate. Staurosporine (our product, in Kitasato Natural Products Library) was used as a positive (cytotoxic) compound. […]; 0.075 to 10 μg/ml for deacetylkinamycin C, deoxyfrenolicin, nanaomycin A, and naphthacemycin A9; 3.1 to 200 μg/ml for tetracycline and patulin; 9.4 to 75 μg/ml for exophillic acid. IC50 values were calculated by the equation described in the reference ([Arita-Morioka et al., 2015]).
For orientation: Tetrazolium dyes change colour on reduction, which living cells bring about.

The next data set deals with EhCS1 (Entamoeba histolytica, UniProt O15570). The data set is described as follows: CS inhibitory activity, recombinant EhCS1 (acid-ninhydrin cysteine detection). In kind it is biochemical. As for the experimental part:
as §1, §2, §3

The subject of data set [2] is E. histolytica clonal strain HM-1:IMSS cl6 trophozoites. Kind of data set: In vitro anti-amebic activity against trophozoites (WST-1 viability). Conditions: 48 h. As for the experimental part: Trophozoites were harvested in 3–4 days after inoculation of 1/30 to 1/12 of the total culture volume. After the cultures were chilled on ice for 5 min, trophozoites were collected by centrifugation at 500 ×g for 10 min at 4°C and washed twice with BI-S-33 medium. The obtained trophozoites were suspended in BI-S-33 medium and approximately 1 × 10^4 trophozoites in 200 μl of BI-S-33 medium were poured into each well of a 96-well plate and incubated for 2 h. Subsequently, the medium was removed and 200 μl of BI-S-33 medium or cysteine-deprived BI-S-33 medium containing 1% (v/v) penicillin/streptomycin (Life Technologies) together with test compounds (final concentrations; 0.1, 1, 10, 100 μg/ml for kerriamycin B, kerriamycin C, aggreticin, and xanthofulvin; 0.1, 1, 10, 50, 100 μg/ml for the other compounds) was added to each well and incubated under anaerobic conditions for 48 h. After incubation, the medium was removed and 90 μl of pre-warmed Opti-MEM I (Life Technologies) and 10 μl of WST-1 solution (Dojindo) were added to each well. Viability of trophozoites was detected with absorbance at 450 nm (SH-9000Lab, Corona Electric). Cytotoxicity was measured in triplicate. […] Metronidazole (Sigma–Aldrich, MO, USA) was used as positive control.

For another data set, the system named is semaphorin. Also noted: method as in Kumagai et al., 2003. Conditions: ref Kumagai et al., 2003; cited from earlier work.
For the next data set, the system named is MRC-5 cells. The data set is described as follows: Cytotoxicity against MRC-5 cells (WST-8). In kind it is cell-based. Conditions: human fibroblast cells MRC-5, 2 days. How it is done:
as §4

Where [3] appears, read: recombinant EhCS3, 15 min at 37°C, 2 mM O-acetyl-L-serine, 2 mM Na2S, read-out: IC50 CS3.
Setting [4] is: recombinant EhCS1, 15 min at 37°C, 2 mM O-acetyl-L-serine, 2 mM Na2S, read-out: IC50 CS1.
Setting [5] is: Entamoeba histolytica, read-out: Cytotoxicity against Entamoeba histolytica IC50, Cys (+).
Setting [6] is: Entamoeba histolytica, read-out: Cytotoxicity against Entamoeba histolytica IC50, Cys (–).

Chain of EhCS3 (Q401L7 entry or part of it): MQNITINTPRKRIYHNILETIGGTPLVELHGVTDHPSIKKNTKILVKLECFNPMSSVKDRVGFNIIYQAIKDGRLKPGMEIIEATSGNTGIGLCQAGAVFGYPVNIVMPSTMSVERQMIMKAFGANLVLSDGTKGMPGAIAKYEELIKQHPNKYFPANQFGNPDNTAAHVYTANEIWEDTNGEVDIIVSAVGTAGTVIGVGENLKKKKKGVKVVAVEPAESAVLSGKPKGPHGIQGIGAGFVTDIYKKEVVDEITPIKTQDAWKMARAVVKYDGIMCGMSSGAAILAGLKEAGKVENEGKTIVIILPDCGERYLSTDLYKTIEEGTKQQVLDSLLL
Chain of EhCS1 (O15570 entry or part of it): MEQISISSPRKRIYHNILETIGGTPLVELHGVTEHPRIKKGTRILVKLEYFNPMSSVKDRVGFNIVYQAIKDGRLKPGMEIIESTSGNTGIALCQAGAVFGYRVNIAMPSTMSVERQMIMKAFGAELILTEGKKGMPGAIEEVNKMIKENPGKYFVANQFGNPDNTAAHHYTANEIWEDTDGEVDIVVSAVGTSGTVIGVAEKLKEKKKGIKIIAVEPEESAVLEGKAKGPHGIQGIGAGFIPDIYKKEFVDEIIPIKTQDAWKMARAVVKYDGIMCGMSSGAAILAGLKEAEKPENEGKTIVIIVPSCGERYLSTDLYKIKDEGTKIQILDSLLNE

Regarding `C[C@@H]1O[C@@H](O[C@@H]2C[C@H](c3ccc4c(c3O)C(=O)C3=C(C4=O)[C@@]4(O[C@H]5CC[C@H](O)[C@H](C)O5)C(=O)C[C@](C)(O)C[C@@]4(O)C=C3)O[C@H](C)[C@H]2O)CC[C@@H]1O` [Aggreticin], the IC50 (usually the concentration that inhibits the measured activity by half) worked out at 0.64 ± 0.1 µM at EhCS3 (setting [3]), 0.98 ± 0.05 µM on EhCS1 (setting [4]), 54 ± 4.8 µM in data set [2] (setting [5]) and 18 ± 0.7 µM in data set [2] (setting [6]). The molecule further showed an IC50 at 2 days in data set [1] of 23 ± 0.6 µM.
Consider `Cc1cc(=O)c2c(o1)-c1c(cc(O)c(O)c1C(=O)O)OC2` [Citromycetin], for which the IC50 at EhCS3 (setting [3]) and at EhCS1 (setting [4]) was above 1400 µM throughout.
Take `C[C@@]1(O)[C@H](O)c2c(c3c(=O)c4cccc(O)c4c(=O)c=3c2=[N+]=[N-])[C@H](O)[C@H]1O` [Deacetylkinamycin C]: the IC50 at EhCS3 worked out at 22 ± 3.7 µM; in data set [1], 2.3 ± 0.1 µM; on EhCS1, 21 ± 2.4 µM; in data set [2] (setting [5]) it was 140 ± 13 µM; in data set [2] (setting [6]) it was 18 ± 10 µM.
As to `CCC[C@H]1O[C@H](CC(=O)O)CC2=C1C(=O)c1c(O)cccc1C2=O` [Deoxyfrenolicin], the IC50 at EhCS3 (setting [3]) amounted to 53 ± 1.1 µM; at EhCS1 (setting [4]), 57 ± 2 µM; in data set [2] (setting [5]), 1.3 ± 0.04 µM; in data set [2] (setting [6]), 0.5 ± 0.1 µM. For the same molecule, inhibition in data set [1] was half-maximal at 4.7 ± 0.2 µM (IC50 at 2 days).
`CCCCCCCCCc1cc(OC(=O)c2c(CCCCCCCCC)cc(O)cc2O[C@@H]2O[C@H](CO)[C@@H](O)[C@H](O)[C@H]2O)cc(O)c1C(=O)O` [Exophillic acid]: the “inhibition against EhCS3” value on EhCS3 is recorded as “no inhibition”. This molecule also displayed an IC50 at 2 days in data set [1] above 100 µM. Moreover, the IC50 at EhCS1 (setting [4]) was 24 ± 2.9 µM; in data set [2] (setting [5]), above 140 µM; in data set [2] (setting [6]), above 140 µM.
As to `C[C@@H]1O[C@@H](CC(=O)O)CC2=C1C(=O)c1c(O)cccc1C2=O` [Nanaomycin A], the IC50 at EhCS3 (setting [3]) stood at 65 ± 4.4 µM; on EhCS1 (setting [4]), 53 ± 3.9 µM; in data set [2] (setting [5]), 12 ± 0.4 µM; in data set [2] (setting [6]), 0.8 ± 0.04 µM. The molecule also gave an IC50 at 2 days in data set [1] of 0.7 ± 0.04 µM.
As to `COc1cc(C)c(-c2cc(OC)cc3c2C(=O)C2=C(C3=O)C(C)(C)c3cc(O)cc(O)c3C2=O)c(OC)c1` [Naphthacemycin A9], the “inhibition of EhCS3 (in words)” value at EhCS3 is “no inhibition”. The IC50 was above 490 µM at EhCS3 (setting [3]), 75 ± 1.8 µM at EhCS1 (setting [4]), above 390 µM in data set [2] (setting [5]) and above 390 µM in data set [2] (setting [6]). Besides, in data set [1], the IC50 at 2 days came out at 16 ± 0.6 µM.
As to `O=C1C=C2C(=CCOC2O)O1` (centres unmarked) [Patulin], the IC50 at EhCS3 is 470 ± 37 µM; at EhCS1, 490 ± 81 µM; in data set [2] (setting [5]), above 650 µM; in data set [2] (setting [6]), 110 ± 12 µM. The same molecule registered an IC50 at 2 days in data set [1] of 110 ± 4.6 µM.
Consider `Cc1c(O)cc2c(c1O)CO[C@@]1(CCCO1)C2=O` [Terreinol], for which the IC50 on EhCS3 (setting [3]) and at EhCS1 (setting [4]) was above 1600 µM in each case.
As for `CN(C)[C@@H]1C(O)=C(C(N)=O)C(=O)[C@@]2(O)C(O)=C3C(=O)c4c(O)cccc4[C@@](C)(O)[C@H]3C[C@@H]12` [Tetracycline, reference compound], the values for the IC50 at EhCS3 and on EhCS1 were 190 ± 9.5 µM and 170 ± 16 µM, respectively. This molecule registered an IC50 at 2 days in data set [1] of 430 ± 4.3 µM.
Take `CC(=O)c1c(C)c(/C(O)=C2\COc3cc(O)c(O)c(C(=O)O)c3C2=O)cc2c(=O)c3c(C(=O)O)c(O)c(O)cc3oc12` [Xanthofulvin]: the IC50 was 110 ± 8.2 µM on EhCS3 (setting [3]), 7.9 ± 1.3 µM at EhCS1 (setting [4]), above 170 µM in data set [2] (setting [5]) and above 170 µM in data set [2] (setting [6]). Also, the “semaphorin inhibitor IC50” value in the data set on semaphorin was 0.09 µg/mL.
As to Kerriamycin B, the IC50 amounted to 0.31 ± 0.01 µM on EhCS3 (setting [3]); 21 ± 0.4 µM in the data set on MRC-5 cells; 0.63 ± 0.07 µM at EhCS1 (setting [4]); 26 ± 1.5 µM in data set [2] (read-out: Cytotoxicity against Entamoeba histolytica IC50, Cys (+), BI-S-33 medium with cysteine, anaerobic); 23 ± 0.3 µM in data set [2] (read-out: Cytotoxicity against Entamoeba histolytica IC50, Cys (–), cysteine-deprived BI-S-33 medium, anaerobic).
